Among the test systems are DMS 273 small cell lung; OVCAR-5 ovarian; UO-31 renal; SW-620 colon; IGROV1 ovarian; OVCAR-4 ovarian; SK-OV-3 ovarian; DLD-1 colon; T-47D breast; PC-3 prostate.
Common to all, as to experiment: inhibition of tumour cell growth, NCI panel, 48 h

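Briefly, cells in 96-well plates were exposed to five compound concentrations for 48 h, and endpoints were estimated by linear interpolation. Abbreviation: GI50, concentration required for 50% inhibition of growth. At the TGI there is no net growth.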

Consider `COc1ccc2c3c([nH]c2c1[N+](=O)[O-])C(C)N(C(=O)/C=C/c1ccccc1)CC3` (configuration not stated), for which the TGI was 7.77 µM in the test with DMS 273 small cell lung; > 100 µM with OVCAR-5 ovarian; > 100 µM in the test on UO-31 renal; > 100 µM with SW-620 colon; > 100 µM in the test on IGROV1 ovarian; > 100 µM in the test with OVCAR-4 ovarian.

Consider `CC(=O)N1C(=O)C(=O)c2cc(Cl)ccc21`, for which the TGI in the test on SK-OV-3 ovarian, in the test with DMS 273 small cell lung, in the test on OVCAR-5 ovarian, in the test on UO-31 renal, in the test on DLD-1 colon and in the test with SW-620 colon was > 100 µM throughout. Further, the TGI in the test with IGROV1 ovarian and with OVCAR-4 ovarian was > 100 µM throughout.

Consider `O=C(CN1C(=O)c2ccccc2C1=O)OC1C=CCCC1` (configuration not stated), for which the TGI with SK-OV-3 ovarian, in the test with DMS 273 small cell lung, with UO-31 renal, in the test with DLD-1 colon, in the test with SW-620 colon and with IGROV1 ovarian was > 100 µM each time. Further, the TGI with OVCAR-4 ovarian is > 100 µM.

In the case of `COc1ccc2c(CCNS(=O)(=O)c3ccccc3)c(C(C)=O)[nH]c2c1[N+](=O)[O-]`, the TGI with DMS 273 small cell lung, with OVCAR-5 ovarian, in the test with UO-31 renal, with SW-620 colon, with IGROV1 ovarian and with OVCAR-4 ovarian was > 100 µM each time.

In the case of `CC(=O)C1C(=O)C(=O)N(c2ccc(Cl)cc2C)C1=O` (configuration not stated), the TGI in the test with OVCAR-5 ovarian, with UO-31 renal, in the test on DLD-1 colon, in the test with SW-620 colon, with IGROV1 ovarian and in the test on OVCAR-4 ovarian was > 100 µM throughout.

With `CCC1(c2ccncc2)CCC(=O)NC1=O` (configuration not stated), the TGI in the test on SK-OV-3 ovarian, in the test with OVCAR-5 ovarian, in the test with UO-31 renal, in the test on DLD-1 colon, with SW-620 colon and in the test with IGROV1 ovarian was > 100 µM each time. The TGI with OVCAR-4 ovarian is > 100 µM.

In the case of `CC1=C(CC/C(C)=C/CCC2(C)CCC([C@H](C)C(=O)O)OO2)C(C)(C)CCC1` (some centres not stated) (tested in a mixture with another compound), the TGI in the test on DMS 273 small cell lung, in the test with OVCAR-5 ovarian, with UO-31 renal, in the test with DLD-1 colon, with SW-620 colon and in the test with OVCAR-4 ovarian was > 100 µM in each case.

Turning to `COc1ccc(-c2ccc(=O)oc2-c2cc(OC)c(OC)c(OC)c2)cc1O`, the GI50 is 0.0307 µM in the test with SK-OV-3 ovarian; < 0.0208 µM in the test on UO-31 renal; > 100 µM with T-47D breast; 0.0183 µM with PC-3 prostate; < 0.0147 µM with SW-620 colon; < 0.01 µM in the test on IGROV1 ovarian. Moreover, the GI50 with OVCAR-4 ovarian is 0.283 µM. For the same compound, the TGI in the test with SK-OV-3 ovarian, in the test with OVCAR-5 ovarian, in the test on UO-31 renal, in the test on T-47D breast, in the test with PC-3 prostate and with SW-620 colon was > 100 µM each time. Further, the TGI with OVCAR-4 ovarian was > 100 µM.

Consider `COc1cc2c3c(n(CCCn4cccn4)c(=O)c2cc1OC)-c1cc2c(cc1C3=O)OCO2`, for which the GI50 with SK-OV-3 ovarian was 4.13 µM; with OVCAR-5 ovarian, 14 µM; in the test with UO-31 renal it was 0.962 µM; in the test on T-47D breast, 2.2 µM; with PC-3 prostate, 16.3 µM; in the test on SW-620 colon, 1.39 µM. Also, the GI50 was 1.8 µM with IGROV1 ovarian and 19.7 µM with OVCAR-4 ovarian. For the same compound, the TGI is > 100 µM in the test on SK-OV-3 ovarian; 64.4 µM in the test with OVCAR-5 ovarian; 18.1 µM in the test on UO-31 renal; > 100 µM with T-47D breast; > 100 µM in the test with PC-3 prostate; > 100 µM with SW-620 colon. Further, the TGI came out at 29 µM in the test with IGROV1 ovarian and 66.1 µM in the test on OVCAR-4 ovarian.

On to `N#C/C(=C/c1cccs1)c1cccs1`, for which the GI50 in the test with SK-OV-3 ovarian is > 100 µM; with OVCAR-5 ovarian, > 100 µM; in the test with UO-31 renal, > 100 µM; in the test on T-47D breast, 51.5 µM; in the test with PC-3 prostate, > 100 µM; in the test on SW-620 colon it was > 100 µM. Also, the GI50 in the test on IGROV1 ovarian and in the test on OVCAR-4 ovarian was > 100 µM each time. The TGI in the test on SK-OV-3 ovarian, in the test with OVCAR-5 ovarian, in the test on UO-31 renal, in the test with T-47D breast, with PC-3 prostate and in the test on SW-620 colon was > 100 µM each time. In addition, the TGI in the test on IGROV1 ovarian and with OVCAR-4 ovarian was > 100 µM each time.

On to `COC(=O)/C1=C/C2CC(/C=C(/c3ccccc3)C(=O)O1)C2`, for which the TGI in the test with SK-OV-3 ovarian is 72.9 µM; in the test on DMS 273 small cell lung, 53 µM; with UO-31 renal, > 100 µM; in the test on DLD-1 colon, > 100 µM; in the test on SW-620 colon it was > 100 µM; in the test on IGROV1 ovarian, > 100 µM.

For the compound `CP(=O)(CCSc1ccccc1)c1ccccc1` (configuration not stated), the TGI in the test with SK-OV-3 ovarian, in the test on DMS 273 small cell lung, with UO-31 renal, in the test with DLD-1 colon, in the test on SW-620 colon and in the test with IGROV1 ovarian was > 100 µM throughout. Further, in the test on OVCAR-4 ovarian, the TGI is > 100 µM.

On to `COc1ccccc1NC(=O)N/C(N)=N/c1nc2ccccc2s1`, for which the GI50 with SK-OV-3 ovarian was 0.476 µM; with OVCAR-5 ovarian, 0.42 µM; in the test on UO-31 renal, 0.389 µM; with T-47D breast, 0.394 µM; in the test with PC-3 prostate, 0.0906 µM; in the test on SW-620 colon, 0.0531 µM. The GI50 in the test on IGROV1 ovarian is 0.0884 µM; in the test on OVCAR-4 ovarian, 0.218 µM. Moreover, the TGI in the test on SK-OV-3 ovarian, with OVCAR-5 ovarian, in the test on UO-31 renal, in the test on T-47D breast, in the test on PC-3 prostate and in the test on SW-620 colon was > 100 µM each time. Besides, the TGI with IGROV1 ovarian and in the test with OVCAR-4 ovarian was > 100 µM throughout.

In the case of `COc1cccc(NC(=O)c2ccc(C(F)(F)F)nc2Nc2ccc(Cl)cc2C)c1`, the GI50 in the test with SK-OV-3 ovarian was 13.4 µM; in the test on OVCAR-5 ovarian it was 2.51 µM; with UO-31 renal, 1.45 µM; with T-47D breast it was 4.31 µM; in the test on PC-3 prostate, 4.36 µM; in the test with SW-620 colon, 14.5 µM. Moreover, the results for the GI50 with IGROV1 ovarian and in the test on OVCAR-4 ovarian were 10.5 µM and 14.9 µM, respectively. The TGI came to 27.8 µM in the test with SK-OV-3 ovarian; 20 µM with OVCAR-5 ovarian; 8.29 µM with UO-31 renal; 25.1 µM in the test with T-47D breast; 17.9 µM with PC-3 prostate; 28.7 µM with SW-620 colon. In addition, the TGI was 22.2 µM in the test with IGROV1 ovarian and 28.6 µM with OVCAR-4 ovarian.

These data come from PubChem BioAssay (NCI).
